From US10154974B1, “Use of abscisic acid for the prevention and treatment of malaria” (The Regents of the University of California, priority 2015, dated 2018)
Where “and” joins values, the source holds several entries; their conditions need not be identical. Identical values can stand only once.

Key:
AMPK = AMPK phosphorylation in mosquito midgut; assay type: in vivo, Anopheles stephensi; details: midguts of ABA-treated, P. falciparum-fed mosquitoes
Procedure: Fold change is shown in levels of phosphorylated AMPK (FIG. 13A), and gsk3 (FIG. 13B) in the midguts of ABA-treated, P. falciparum-fed mosquitoes compared to controls. Each dot represents one replicate of 15 pooled midguts. Data were analyzed by one sample t-test. * p<0.05.

[1] = tested on: parasite-specific IgG and IgG1; assay: Western blot of infected RBC protein probed with mouse plasma; assay type: in vivo; details: P. yoelii-infected mice
Excerpt: FIG. 26A-C illustrate that ABA-supplementation increased levels of parasite-specific IgG and IgG1 in mouse plasma. Shown are western blots of protein from uninfected and P. yoelii-infected RBCs probed with plasma from uninfected, P. yoelii-infected, ABA-supplemented P. yoelii-infected mice followed by IgG1 (FIG. 26A) and total IgG (FIG. 26B) secondary antibodies. Also shown is a densitometry analysis (FIG. 26C) of IgG1- and total IgG-bound protein from infected RBCs. Data are shown as fold change between control P. yoelii and ABA-supplemented P. yoelii plasma.

P. yoelii 17XNL = P. yoelii 17XNL infection of CD1 mice given ABA in drinking water (parasitemia, gametocytemia); assay type: in vivo
Procedure: 6-8 week old female CD1 mice (Jackson) were housed four to a cage and provided with unsupplemented water or water supplemented with 2.56 mM (±)-abscisic acid (CAS Registry Number 14375-45-2) obtained from Sigma-Aldrich (Catalog No. A1049). Water and supplemented water were changed daily. […] Mouse weight, water consumption per cage, and parasitemia were monitored daily. Parasitemia was determined from thin blood films stained with Giemsa. Parasitemia was measured as the percentage of infected RBCs divided by total RBCs, while gametocytemia was measured as the proportion of gametocyte-containing RBCs of total infected RBCs. Four mice were used per group in replicated studies. Daily parasitemias and gametocytemias were analyzed by unpaired t-test.

P. falciparum = assay: Pfs16 and Pfs25 expression in parasite-fed mosquito midguts (parasite death); assay type: in vivo; details: between 18 and 24 hours post-bloodmeal
Procedure: Expression levels are shown of P. falciparum genes Pfs16 and Pfs25 in ABA-supplemented parasite-fed mosquito midguts. Data are normalized to mosquito and parasite ribosomal genes s7 and A18s. Each dot represents one replicate of 10 pooled midguts. Data are shown as fold change relative to control and were analyzed by one sample t-test. * p<0.05.

[2] = Small animal chemistry panel of plasma; assay type: in vivo, mice
Procedure: FIG. 19A-C through FIG. 28A-B and Tables 6-1 through 6-4 support the use of ABA for treating Plasmodium-infected mammalian subjects. In the following tables, 4-5 mice were used per treatment, and data were analyzed by unpaired t-test. […] Abbreviations for Tables 6-3 and 6-4 are as follows: WBC=white blood cells, RBCs=red blood cells, MCV=mean corpuscular volume, MCH=mean corpuscular hemoglobin, MCHC=mean corpuscular hemoglobin concentration, RDW=red blood cell distribution width, MPV=mean platelet volume.

defensin = assay: Defensin mRNA levels in mosquito midgut; assay type: in vivo, Anopheles stephensi; details: 100 nM ABA, 4 hours post-feeding
Procedure: For mosquito immune gene expression, 20 midguts were dissected from mosquitoes in each treatment group at 1, 2, 4, 6, 8 and 24 hours post-feeding. Midguts were sonicated and stored in Trizol at −20° C. for up to a week before RNA was extracted according to manufacturer's instructions. cDNA synthesis was carried out using QantiTect Reverse Transcription Kit (Qiagen) and 200 ng of cDNA used per reaction for qRT-PCR with Sybr Green (Applied Biosystems). Fold changes in expression levels were calculated using the comparative threshold cycle method. Data were normalized to the housekeeping gene ribosomal protein S7 and to the control treatment. Primers and cycling conditions for AsNOS, defensin, LRIM, TEP1, and APL1 were as previously described (Hauck E S, et al. Microbes Infect. 2013; 15:775-87). […] Samples were analyzed in triplicate with 250 ng of cDNA per reaction to confirm uniformity of amplification. […] All expression data were analyzed by one sample t-test.
Transcript levels of a panel of immune genes previously described to play a role in the mosquito immune response to malaria parasites were examined. […] Mosquitoes were provided with a P. falciparum-infected bloodmeal supplemented with 100 nM ABA or with an equivalent volume of diluent as control, then analyzed at 1-24 hours post feeding.

Anopheles stephensi = assay: Mosquito lifespan with weekly ABA-supplemented bloodmeals; assay type: in vivo
Procedure: Median survival of control and ABA-treated mosquitoes from five lifespans in which mosquitoes received a weekly control or ABA-supplemented uninfected bloodmeal. Each lifespan was conducted with 300 female mosquitoes per treatment. Data were analyzed by Wilcoxon matched-pairs signed rank test.
FIG. 17A is a survival curve of mosquitoes provided weekly control or ABA-supplemented uninfected bloodmeals and maintained on 3% sucrose solution. FIG. 17B is a survival curve of P. falciparum-infected mosquitoes provided control or ABA-supplemented weekly bloodmeals. Infection status was determined by detection of PfCOX in individual mosquitoes by qRT-PCR. Data were analyzed by log-rank test and Gehan-Breslow-Wilcoxon test.

MAPK (erk, jnk, p38) = assay: MAPK phosphorylation in mosquito midgut; assay type: in vivo, Anopheles stephensi; details: 0 to 4 hours
[3] = uninfected and infected mice, day 11 post-infection

CC1=CC(=O)CC(C)(C)[C@@]1(O)/C=C/C(C)=C\C(=O)O (racemic) [ABA, (2Z,4E)-5-[(1S)-1-hydroxy-2,6,6-trimethyl-4-oxocyclohex-2-en-1-yl]-3-methylpenta-2,4-dienoic acid]
phosphorylation of AMPK (AMPK): alters phosphorylation | levels of parasite-specific IgG and IgG1 in mouse plasma [1]: increased | parasitemia (P. yoelii 17XNL; CD1 mice, day 4 to day 7 post-infection, relative to controls (Example 1)): reduced | gametocytemia (P. yoelii 17XNL; CD1 mice, day 6 of infection (Example 1)): reduced | gametocytemia (P. yoelii 17XNL; day 5 post-infection (Example 2)): reduced | parasitemia (P. yoelii 17XNL; starting on day 3 post-infection, compared to controls (Example 2)): reduced | parasite death in mosquito midgut (Pfs16 and Pfs25 expression) (P. falciparum): increased parasite death | alanine transaminase, Mean ([2]; P. yoelii-infected mice): 30.23 U/L | albumin, Mean ([2]; P. yoelii-infected mice): 2.25 g/dL | aspartate transaminase, Mean ([2]; P. yoelii-infected mice): 194.7 U/L | creatine, Mean ([2]; P. yoelii-infected mice): 0.18 mg/dL | phosphorus, Mean ([2]; P. yoelii-infected mice): 8.43 mg/dL | total bilirubin, Mean ([2]; P. yoelii-infected mice): 0.26 mg/dL | total protein, Mean ([2]; P. yoelii-infected mice): 4.12 g/dL | liver function (blood urea nitrogen levels in plasma) ([2]; day 11 post-infection): improved | plasma indicators of organ health ([2]; uninfected and P. yoelii-infected mice): no effect | glucose levels in mouse plasma [2, 3]: does not alter | insulin levels in mouse plasma [2, 3]: does not alter | alanine transaminase, Mean ([2]; uninfected mice): 176.8 U/L | albumin, Mean ([2]; uninfected mice): 3.23 g/dL | aspartate transaminase, Mean ([2]; uninfected mice): 1437 U/L | blood urea nitrogen, Mean ([2]; uninfected mice): 28.76 mg/dL | creatine, Mean ([2]; uninfected mice): 0.21 mg/dL | phosphorus, Mean ([2]; uninfected mice): 10.07 mg/dL | total bilirubin, Mean ([2]; uninfected mice): 0.06 mg/dL | total protein, Mean ([2]; uninfected mice): 4.67 g/dL | defensin mRNA levels (defensin): increase | mosquito lifespan (Anopheles stephensi; P. falciparum-infected mosquitoes): does not alter | mosquito median survival (Anopheles stephensi; five lifespans, weekly uninfected bloodmeal): does not alter | Median Survival (Anopheles stephensi; mosquitoes, weekly ABA-supplemented uninfected bloodmeal, replicates 1-5): 23 days and 16 days (2×) and 21 days and 18 days | mosquito lifespan (Anopheles stephensi; nutrient stress: maintained on 3% sucrose solution): does not alter | MAPK phosphorylation (MAPK (erk, jnk, p38)): does not alter
